Key:
[1] = Body weight changes in MC38 colon cancer cell-transplanted mouse models; assay type: in vivo
Experimental: Body weights were measured using an electronic balance for animals. Body weight changes (BWCn) on the n^th day were determined based on the body weight measured on the n^th day (BWn) in accordance with the following formula.
(§1) An aqueous solution of 0.5% Hypromellose was prepared by adding an adequate amount of an injection solvent (Japanese Pharmacopoeia) to and dissolving Hypromellose at a concentration of 0.5 w/v %. Compound 1, synthesized in accordance with the method disclosed in WO 2017/209155, was grounded in an agate mortar, suspended at a given concentration in the aqueous solution of 0.5% Hypromellose, and then ultrasonically treated to obtain a homogeneous suspension. The resulting suspension was orally administered as Compound 1 once a day for continuous 14 days at 25 mg/kg/day or 50 mg/kg/day. To the control group, the aqueous solution of 0.5% Hypromellose was orally administered once a day for continuous 14 days.
(§2) As an anti-mouse PD-1 antibody (anti-mPD-1 Ab), CD279 (PD-1) Monoclonal Antibody (RMP1-14), eBioscience (Thermo Fisher Scientific) was diluted to a given concentration with PBS immediately before administration. On the first day of administration (Day 1), the anti-mouse PD-1 antibody was administered intraperitoneally at 0.05 mg/body.

[2] = test system: MC38 mouse colon cancer cells; experiment: Antitumor effect in MC38 colon cancer cell-transplanted mouse models (tumor volume); assay type: in vivo; conditions: for T/C (%): Day 15; for TV on Day 15 (mm^3, mean ± SE): MC38 s.c. in C57BL/6NCrl mice, n=10
Experimental: The mouse colon cancer cell strain MC38 was obtained from Dr. Yoshihiro Hayakawa (University of Toyama, Toyama, Japan). The MC38 cell strain was subjected to culture in an RPMI 1640 medium containing 10% fetal bovine serum and then to subculture in an incubator at 37° C. in the presence of 5% CO2 at a frequency of once or twice a week.
The MC38 cell suspension was transplanted subcutaneously at 1×10^6 cells/0.1 ml to the right chest of 6-week-old C57BL/6NCrl mice (Charles River Laboratories Japan, Inc.).
After transplantation, tumors were allowed to grow to reach the tumor volume (TV) of 50 to 300 mm^3. The longer diameter and the shorter diameter of the tumor were measured using a Digimatic caliper and the tumor volume (TV) was calculated in accordance with the following formula.
The animals were divided into groups each consisting of 10 individuals by stratified random allocation using TV as the indicator. The day on which grouping (n=10) was performed was designated as Day 0.
Tumor volume changes (T/C) were calculated based on TV on the final day of evaluation (Day 15).
as §1, §2

[3] = Non-Patent Literature 10; cited from earlier work
[4] = target: T1, RNR (Homo sapiens, UniProt P31350); conditions: Non-Patent Literature 7; cited from earlier work
T1 sequence (P31350 1-389): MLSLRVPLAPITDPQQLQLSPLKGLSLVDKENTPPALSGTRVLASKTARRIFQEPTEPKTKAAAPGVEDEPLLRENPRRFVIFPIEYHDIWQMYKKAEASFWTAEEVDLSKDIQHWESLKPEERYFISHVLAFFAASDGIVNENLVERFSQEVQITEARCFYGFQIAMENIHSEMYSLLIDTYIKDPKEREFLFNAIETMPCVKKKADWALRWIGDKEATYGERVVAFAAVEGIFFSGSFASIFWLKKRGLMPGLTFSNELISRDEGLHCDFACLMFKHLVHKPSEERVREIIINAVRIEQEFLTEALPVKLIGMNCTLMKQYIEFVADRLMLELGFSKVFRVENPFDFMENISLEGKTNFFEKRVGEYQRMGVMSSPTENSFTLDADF

[5] = Compound 1 25 mg/kg/day p.o. days 1-14
[6] = Compound 1 50 mg/kg/day p.o. days 1-14

## Cc1ccc(F)c([C@@H](C)[C@H](NS(=O)(=O)c2ccc(Cl)cc2C(N)=O)c2n[nH]c(=O)o2)c1C [Compound 1, 5-Chloro-2-(N-((1S,2R)-2-(6-fluoro-2,3-dimethylphenyl)-1-(5-oxo-4,5-dihydro-1,3,4-oxadiazol-2-yl)propyl)sulfamoyl)benzamide]
[1]; [5]
  BWC on Day 15 (%, mean ± SE): 4.0 ± 0.7%
[1]; [6]
  BWC on Day 15 (%, mean ± SE): 4.9 ± 1.0%
[2]; [5]
  T/C (%): 91.9%
  TV on Day 15 (mm^3, mean ± SE): 868 ± 182 mm^3
[2]; [6]
  T/C (%): 29.7%
  TV on Day 15 (mm^3, mean ± SE): 306 ± 79 mm^3
[2]; Compound 1 at 50 mg/kg/day alone
  TV on Day 15 compared with the control group (Dunnett's test): significantly lower

## NC(=S)NN=Cc1ncccc1N [Compound 3-AP, 3-aminopyridine-2-carboxaldehyde thiosemicarbazone]
[3]
  Side effects caused in clinical cases: hypoxia, dyspnea, methemoglobinemia

## NC(=O)NO [HU, hydroxyurea]
[4]
  RNR inhibitory activity: very weak

Reference: patent US20220226291A1, “Combination Treatment of Cancer Using Sulfonamide Compound and Immune Regulator” (Taiho Pharmaceutical Co., Ltd, priority 2019, published 2022)
